Measured values: US11390631B1, “Benzodiazepine derivatives as RSV inhibitors” (priority 2015, dated 2022)
pEC50: −log10 of the molar value.

What was measured:
[1] = Cytotoxicity on parallel plate without virus, ATPlite readout; format: cell-based; settings: human, Hep-2 cells (no virus), Hep-2 cells without virus, 5-day incubation
Method: Following extensive parameter testing, the final assay is run as follows: Hep-2 cells are seeded into the inner 60 wells of a 96-well plate at 8,000 cells per well in a volume of 50 μL using Growth Media (DMEM without phenol red, 1% L-Glut, 1% Penn/Strep, 1% nonessential amino acids, 10% heat-inactivated FBS). 2-fold serial dilutions of control and test compounds are added to the wells in duplicate in a total volume of 25 μL. Viral stock is then added to the wells at a multiplicity of infection (MOI) of 0.1 in a volume of 25 μL, bringing the total volume of each well to 100 μL. The MOI is calculated using the PFU/mL, or TCID50 if unavailable. Each 96-well plate has a control column of 6 wells with cells and virus but no compound (negative control, max CPE), a column with cells but no compound or virus (positive control, minimum CPE), and a column with no cells or virus or compound (background plate/reagent control). The control wells with cells but no virus are given an additional 25 uL of growth media containing an equal quantity of sucrose as those wells receiving the viral stock in order to keep consistent in media and volume conditions. The outer wells of the plate are filled with 125 μL of moat media (DMEM, 1% Penn/Strep) to act as a thermal and evaporative moat around the test wells. Following a 5-day incubation period, the plates are read using ATPlite (50 uL added per well), which quantifies the amount of ATP (a measure of cell health) present in each well. Assay plates are read using the Envision luminometer. In parallel, cytotoxicity is examined on an additional 96-well plate treated in an identical manner, but substituting the 25 μL of viral stock for 25 μL of growth media. […] EC50 ranges are as follows: A<0.4 μM; B 0.4-0.8 μM; C>0.8 μM and CC50 ranges are as follows: A>50 μM; B 10-50 μM; C<10 μM.

[2] = tested on: RSV-B, genotype B, strain 9320; test: RSV-B assay: A549 cells infected with RSV-B, qPCR or ATPlite readout; format: cell-based, Human respiratory syncytial virus (HRSV); settings: human respiratory syncytial virus, A549, read-out: Human RSV-B EC50
From the text: Hep-2 cells, (originally derived from tumors grown in irradiated-cortisonised weanling rats that had been injected with epidermoid carcinoma tissue from a person's larynx, but later found to be indistinguishable from HeLa cells by PCR DNA analysis), were used for the culturing of genotype B, strain 9320. Flasks were inoculated with RSV-B and viral stocks were collected once cytopathic effect (CPE) was greater than […]. Viral stocks in 25% o sucrose media were snap frozen using liquid nitrogen to increase viral stability. Viral stock titers were quantified by tissue culture infectious dose 50% o (TCID50) using 8,000 cells per well and 5-fold viral dilutions across a 96-well plate, cultured for 4 days. Viral stock titers were also quantified by a plaque forming unit assay, as described elsewhere.
The assay is run as follows: A549 cells (originally derived through explant culture from a person's carcinomatous lung tissue) are seeded into the inner 60 wells of a 96-well plate at 3,000 cells per well in a volume of 50 μL using A549 growth media (F-12K Media, 1% Penn/Strep, 1% nonessential amino acids, 10% heat-inactivated FBS). 2-fold serial dilutions of control and test compounds are added to the wells in duplicate in a total volume of 25 μL. Viral stock is then added to the wells at a multiplicity of infection (MOI) of 0.5 in a volume of 25 μL, bringing the total volume of each well to 100 μL. The MOI is calculated using the PFU/mL, or TCID50 if unavailable. Each 96-well plate has a control column of 6 wells with cells and virus but no compound (negative control, max CPE), a column with cells but no compound or virus (positive control, minimum CPE), and a column with no cells or virus or compound (background plate/reagent control). The control wells with cells but no virus are given an additional 25 uL of growth media containing an equal quantity of sucrose as those wells receiving the viral stock in order to keep consistent in media and volume conditions. The outer wells of the plate are filled with 125 μL of moat media (DMEM, 1% Penn/Strep) to act as a thermal and evaporative moat around the test wells. 6 days post infection, the plates are read using qPCR or ATP lite (50 uL added per well), which quantifies the amount of ATP (a measure of cell health) present in each well. Assay plates treated with APTlite are read using the Envision luminometer. […] EC50 ranges are as follows: A<0.4 μM; B 0.4-0.8 μM; C>0.8 μM.

[3] = tested on: Human RSV-A (“Long” strain); test: RSV-A assay: inhibition of cytopathic effect in Hep-2 cells, ATPlite readout; format: cell-based, Human respiratory syncytial virus (HRSV); settings: human respiratory syncytial virus, HEp-2, 120 h, read-out: Human RSV-A (“Long” strain) EC50
Outline: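 Cytopathic-effect protection was read as ATP content (ATPlite luminescence) after a 5-day incubation. Setup: Hep-2 cells at 8,000 per well, RSV-A Long at MOI 0.1, 2-fold serial compound dilutions in duplicate. Cytotoxicity (CC50) was measured on an identical uninfected plate run in parallel.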

SMILES	CC50 at 5 days [1]	pEC50 [2]	pEC50 [3]
O=C1Nc2ccccc2C(c2ccccc2)=N[C@@H]1Nc1nnc(-c2ccc(F)cc2)o1 [Example 7a]	> 50000 nM	< 6.10	6.10 to 6.40
CCc1nc(-c2nnc(N[C@H]3N=C(c4ccccc4)c4ccccc4NC3=O)o2)c(N2CCOCC2)s1 [Example 385]	–	> 6.40	> 6.40
O=C1Nc2ccccc2C(c2ccccc2)=N[C@@H]1Nc1nnc(-c2nc(C3CCC3)sc2N2CCOCC2)o1 [Example 387]	–	> 6.40	> 6.40
O=C1Nc2ccccc2C(c2ccccc2)=N[C@@H]1Nc1nnc(-c2nc(-c3cccnc3)sc2N2CCOCC2)o1 [Example 388]	–	> 6.40	> 6.40
CC(C)n1cc(-c2nnc(N[C@H]3N=C(c4ccccc4)c4ccccc4NC3=O)o2)c(N2CCOCC2)n1 [Example 403]	–	> 6.40	> 6.40
CC(F)(F)c1nc(-c2nnc(N[C@H]3N=C(c4ccccc4)c4ccccc4NC3=O)o2)c(N2CCOCC2)s1 [Example 407]	–	> 6.40	> 6.40
O=C1Nc2ccccc2C(c2ccccc2)=N[C@@H]1Nc1nnc(-c2nc(-c3ccncc3)sc2N2CCOCC2)o1 [Example 429]	–	> 6.40	> 6.40
